Data published in paper PMC7698448, “Design, Synthesis, and Biological Evaluation of Pyridazinones Containing the (2-Fluorophenyl) Piperazine Moiety as Selective MAO-B Inhibitors” (Molecules, 2020).
“Also recorded” adds a separate entry of the source.

Assays:
[1] = target: T1, recombinant human MAO-A (Homo sapiens, UniProt P21397); assay: Recombinant human MAO-A inhibition assay (kynuramine substrate); assay type: biochemical; conditions: kynuramine 0.06 mM, 15 min preincubation; for remaining activity at 10 µM: inhibitor 10 µM, read-out: Residual Activity (%) MAO-A (10 µM)
T1 construct: purchased Sigma-Aldrich
T1 sequence (P21397 1-527): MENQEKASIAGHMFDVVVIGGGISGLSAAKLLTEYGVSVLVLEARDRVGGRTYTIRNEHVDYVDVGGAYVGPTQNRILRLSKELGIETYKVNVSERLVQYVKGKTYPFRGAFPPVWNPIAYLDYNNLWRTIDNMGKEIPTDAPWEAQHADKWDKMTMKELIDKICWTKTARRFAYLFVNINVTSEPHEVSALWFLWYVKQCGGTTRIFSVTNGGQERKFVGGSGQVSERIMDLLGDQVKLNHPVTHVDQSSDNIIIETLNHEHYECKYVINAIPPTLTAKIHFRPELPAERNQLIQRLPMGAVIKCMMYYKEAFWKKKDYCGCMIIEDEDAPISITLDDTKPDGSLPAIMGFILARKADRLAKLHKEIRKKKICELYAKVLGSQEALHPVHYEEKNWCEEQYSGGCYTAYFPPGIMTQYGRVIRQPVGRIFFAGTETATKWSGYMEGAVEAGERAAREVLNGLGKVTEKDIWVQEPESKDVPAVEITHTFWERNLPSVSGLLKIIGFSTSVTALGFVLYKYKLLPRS
Method: Recombinant human MAO-A and MAO-B inhibitory activities of were continuously assayed as described previously [37], using kynuramine (0.06 mM) and benzylamine (0.3 mM), respectively. […] MAO-A and MAO-B inhibitory activities were measured after preincubating enzymes and inhibitors for 15 min.
The inhibitory activities of the twelve compounds against MAO-A and MAO-B were first investigated at an inhibitor concentration of 10 µM. For the compounds showing residual activities of <50%, IC50 values for MAO-A and MAO-B inhibitions were determined. Kinetic experiments were carried out at five substrate and three inhibitor concentrations [38].

[2] = MTS cytotoxicity assay in L929 cells; assay type: cell-based, mouse; conditions: mouse, L929 cells (mouse fibroblast cell line), 48 h treatment
Method: (§1) An MTS (5-(3-carboxymethoxyphenyl)-2-(4,5-dimethyl-thiazolyl)-3-(4-sulfophenyl)) tetrazolium assay was used to evaluate the cytotoxic activities of T3 and T6 by measuring formazan absorbance. MTS is converted to formazan by mitochondria in metabolically active cells via NAD(P)H-dependent dehydrogenase enzymes. L929 cells (a mouse fibroblast cell line) were used to evaluate the cytotoxicities. Briefly, cells (5 × 10^4 cells/well) were seeded into 96-well plates in DMEM containing 10% fetal bovine serum and 1% penicillin/streptomycin, and incubated for 24 h. After supernatants were removed, the cells were treated with the compounds dissolved in DMSO (at 1, 10, 20, 50, or 100 µM) in triplicate for 48 h at 37 °C in a 5% CO2 atmosphere. MTS reagent (Uptima, Interchim, Montluçon, France) was then added to each well and incubated for 3 h. Absorbances were measured at 490 nm using a microplate reader (BioTek, Winooski, VT, USA), and cell viabilities were calculated as percentage of untreated controls.

[3] = tested on: L929 cells; assay: MTS cytotoxicity assay in L929 cells; assay type: cell-based, mouse; conditions: 48 h
Method: as §1

[4] = target: T2, MAO-B (Homo sapiens, UniProt P27338); assay: Kinetics of MAO-B inhibition (Lineweaver-Burk and secondary plots); assay type: biochemical; set-up: purchased Sigma-Aldrich
T2 sequence (P27338 1-520): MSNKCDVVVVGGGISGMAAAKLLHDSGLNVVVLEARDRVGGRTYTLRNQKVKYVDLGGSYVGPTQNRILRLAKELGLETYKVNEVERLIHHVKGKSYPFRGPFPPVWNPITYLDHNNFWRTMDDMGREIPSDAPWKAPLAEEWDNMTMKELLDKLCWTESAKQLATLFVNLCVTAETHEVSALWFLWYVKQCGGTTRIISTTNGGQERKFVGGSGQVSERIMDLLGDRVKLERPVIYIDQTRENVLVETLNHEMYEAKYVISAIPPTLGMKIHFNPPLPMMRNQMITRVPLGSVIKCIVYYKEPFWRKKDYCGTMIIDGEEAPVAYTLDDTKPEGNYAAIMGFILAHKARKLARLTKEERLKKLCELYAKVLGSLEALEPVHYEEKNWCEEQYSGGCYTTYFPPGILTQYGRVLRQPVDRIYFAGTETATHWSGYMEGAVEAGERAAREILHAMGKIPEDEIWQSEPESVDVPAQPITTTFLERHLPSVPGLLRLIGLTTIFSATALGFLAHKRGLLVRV
Method: (§2) Kinetic experiments were carried out at five substrate and three inhibitor concentrations [38].

[5] = target: T2, MAO-B; assay: Reversibility of MAO-B inhibition by dialysis; assay type: biochemical; set-up: purchased Sigma-Aldrich; conditions: for Relative MAO-B activity of dialyzed sample (AD) / Relative MAO-B activity of undialyzed sample (AU): 30 min preincubation, T3 0.080 µM, T6 0.020 µM, lazabemide 0.30 µM; for Relative MAO-B activity of dialyzed sample (AD): after dialysis; for Reversibility of MAO-B inhibition (recovery by dialysis): pargyline 0.060 µM
Method: Reversibility studies were performed using a dialysis-based method.
The reversibilities of T3 and T6 inhibitions were investigated by dialysis after preincubating them with MAO-B for 30 min, as previously described. […] Reversibilities were determined using the relative activities of undialyzed (AU) and dialyzed (AD) samples [40].

[6] = target: T2, MAO-B; assay: Recombinant human MAO-B inhibition assay (benzylamine substrate); conditions: for Times more potent on MAO-B than lazabemide: ratio of MAO-B potency versus reference reversible inhibitor lazabemide; for SI (IC50 of MAO-A/IC50 of MAO-B): selectivity index for MAO-B
Method: Recombinant human MAO-A and MAO-B inhibitory activities of were continuously assayed as described previously [37], using kynuramine (0.06 mM) and benzylamine (0.3 mM), respectively. […] MAO-A and MAO-B inhibitory activities were measured after preincubating enzymes and inhibitors for 15 min. Enzymes and chemicals were obtained from Sigma-Aldrich (St. Louis, MO, USA).
as §2

remaining activity at 10 µM [1] [%] | IC50 [1] [µM] | IC50 [6] [nM] | SI (IC50 of MAO-A/IC50 of MAO-B) [6] | melting point [°C] | Structure (SMILES) | also measured
20.7 ± 0.62 | 1.57 ± 0.8 | 13 ± 1.6 | 120.8 | – | COc1ccccc1C=NNC(=O)Cn1nc(N2CCN(c3ccccc3F)CC2)ccc1=O [Compound T6] | IC50 at 48 h [2]: > 100000 nM; Cytotoxic effect on L929 cells at any dose ([3]; 1, 10, 20, 50, or 100 µM): did not have a cytotoxic effect; Type of MAO-B inhibition [4]: competitive inhibitors; Relative MAO-B activity of dialyzed sample (AD) [5]: 79.0%; Relative MAO-B activity of undialyzed sample (AU) [5]: 36.9%; Reversibility of MAO-B inhibition (recovery by dialysis) [5]: reversibly inhibit MAO-B; also recorded: reversible; Times more potent on MAO-B than lazabemide [6]: 11; MAO-B potency relative to pargyline ([6]; versus reference irreversible inhibitor pargyline): twice as potent
96.6 ± 1.2 | – | 7680 ± 140 | – | – | O=C(Cn1nc(N2CCN(c3ccccc3F)CC2)ccc1=O)NN=Cc1ccccc1 [Compound T1] | –
73.3 ± 2.86 | – | 2670 ± 51 | – | 207 to 208 | O=C(Cn1nc(N2CCN(c3ccccc3F)CC2)ccc1=O)NN=Cc1cccc(Br)c1 [Compound T8, 6-[4-(2-Fluorophenyl)piperazine-1-yl]-3(2H)-pyridazinone-2-acetyl-2-(3-bromobenzal)hydrazon] | –
61.8 ± 1.65 | – | 150 ± 21 | – | 244 to 245 | Cc1ccccc1C=NNC(=O)Cn1nc(N2CCN(c3ccccc3F)CC2)ccc1=O [Compound T12, 6-[4-(2-Fluorophenyl)piperazine-1-yl]-3(2H)-pyridazinone-2-acetyl-2-(2-methylbenzal)hydrazon] | –
84 ± 0.68 | – | 1680 ± 110 | – | – | O=C(Cn1nc(N2CCN(c3ccccc3F)CC2)ccc1=O)NN=Cc1ccc(Br)cc1 [Compound T5] | –
25.4 ± 6.92 | 4.43 ± 0.29 | 870 ± 56 | – | – | CN(C)c1ccc(C=NNC(=O)Cn2nc(N3CCN(c4ccccc4F)CC3)ccc2=O)cc1 [Compound T7] | –
75.2 ± 4.7 | – | 99 ± 6.9 | – | – | O=C(Cn1nc(N2CCN(c3ccccc3F)CC2)ccc1=O)NN=Cc1ccc(Cl)cc1 [Compound T4] | –
24.6 ± 2.86 | 4.29 ± 0.12 | 100 ± 35 | 42.9 | – | Cc1ccc(C=NNC(=O)Cn2nc(N3CCN(c4ccccc4F)CC3)ccc2=O)cc1 [Compound T2] | –
33.7 ± 4.7 | 7.35 ± 0.059 | 35300 ± 390 | 0.21 | 178 to 180 | O=C(Cn1nc(N2CCN(c3ccccc3F)CC2)ccc1=O)NN=Cc1ccc(F)cc1 [Compound T10, 6-[4-(2-Fluorophenyl)piperazine-1-yl]-3(2H)-pyridazinone-2-acetyl-2-(4-florobenzal)hydrazon] | –
70.4 ± 8.5 | – | 6860 ± 370 | – | 148 to 150 | COc1ccc(C=NNC(=O)Cn2nc(N3CCN(c4ccccc4F)CC3)ccc2=O)cc1 [Compound T11, 6-[4-(2-Fluorophenyl)piperazine-1-yl]-3(2H)-pyridazinone-2-acetyl-2-(4-methoxybenzal)hydrazon] | –
24.6 ± 0.97 | 4.19 ± 0.27 | 39 ± 2.8 | 107.4 | – | O=C(Cn1nc(N2CCN(c3ccccc3F)CC2)ccc1=O)NN=Cc1ccccc1Cl [Compound T3] | IC50 at 48 h [2]: 27000 nM; Cytotoxic effect on L929 cells at 1, 10, or 20 µM ([3]; 1, 10, or 20 µM): no significant death; Cytotoxic effect on L929 cells at 50 and 100 µM ([3]; 50 and 100 µM): complete cell death; Type of MAO-B inhibition [4]: competitive inhibitors; Relative MAO-B activity of dialyzed sample (AD) [5]: 79.4%; Relative MAO-B activity of undialyzed sample (AU) [5]: 22.2%; Reversibility of MAO-B inhibition (recovery by dialysis) [5]: reversibly inhibit MAO-B; also recorded: reversible; Times more potent on MAO-B than lazabemide [6]: 3
35.2 ± 0.56 | 6.76 ± 0.46 | 200 ± 1.7 | 33.8 | 225 to 226 | O=C(Cn1nc(N2CCN(c3ccccc3F)CC2)ccc1=O)NN=Cc1ccccc1F [Compound T9, 6-[4-(2-Fluorophenyl)piperazine-1-yl]-3(2H)-pyridazinone-2-acetyl-2-(2-fluorobenzal)hydrazon] | –
